Data as given in patent publication US20150307938A1, “METHOD TO IDENTIFY A NOVEL CLASS OF IMMUNOLOGIC ADJUVANTS” (Lancell, L.L.C., priority 2011, published 2015).

Tested on: skin
Experiment: Affymetrix microarray of skin, DBP-4 hr and analogs vs. untreated; gene selection by log-2 fold change, Wilcoxon, Kendall tau (Tables 8, 9)
Format: in vivo, mouse
Details: for Kendall: Kendall tau coefficient
[1] = DBP-4 hr vs. untreated, rank-sum p-value
[2] = Kendall tau, expression vs. output

Compound: CCCCOC(=O)c1ccccc1C(=O)OCCCC [DBP, dibutylphthalate]
- Gm10229 XM_003086003_at Wilcoxon [1]: Yes
- Gsdmc NM_031378_at Wilcoxon [1]: Yes
- H19 NR_001592_at Wilcoxon [1]: Yes
- Il1rl1 NM_001025602_at Wilcoxon [1]: No
- Inpp5a NM_001127363_at Wilcoxon [1]: No
- Inpp5d NM_001110192_at Wilcoxon [1]: No
- Inpp5d NM_001110193_at Wilcoxon [1]: No
- Klhdc5 NM_001081237_at Wilcoxon [1]: No
- Krt33a NM_027983_at Wilcoxon [1]: Yes
- Krt34 NM_027563_at Wilcoxon [1]: Yes
- Krtap1-5 NM_027157_at Wilcoxon [1]: Yes
- Krtap3-1 NM_023511_at Wilcoxon [1]: Yes
- Krtap3-3 NM_025524_at Wilcoxon [1]: Yes
- Krtap4-2 NM_026807_at Wilcoxon [1]: Yes
- Krtap5-2 NM_027844_at Wilcoxon [1]: Yes
- Krtap9-3 NM_029351_at Wilcoxon [1]: Yes
- Krtap13-1 NM_183189_at Wilcoxon [1]: Yes
- Krtap16-1 NM_130870_at Wilcoxon [1]: Yes
- Krtap16-5 NM_130857_at Wilcoxon [1]: Yes
- Krtap16-7 NM_028621_at Wilcoxon [1]: Yes
- Krtap16-8 NM_130856_at Wilcoxon [1]: Yes
- Krtap16-9 NM_130876_at Wilcoxon [1]: Yes
- Krtap16-10 NM_183296_at Wilcoxon [1]: Yes
- Krtap28-13 XM_896507_at Wilcoxon [1]: Yes
- Krtap28-13 XM_919110_at Wilcoxon [1]: Yes
- LOC100503254 XM_003085741_at Wilcoxon [1]: Yes
- Lmod2 NM_053098_at Wilcoxon [1]: Yes
- Lyz2 NM_017372_at Wilcoxon [1]: Yes
- Mfhas1 NM_001081279_at Wilcoxon [1]: No
- Mfsd4 NM_001114662_at Wilcoxon [1]: No
- Mia1 NM_019394_at Wilcoxon [1]: Yes
- Mrpl44 NM_001081210_at Wilcoxon [1]: No
- Ms4a6d NM_026835_at Wilcoxon [1]: Yes
- Mylpf NM_016754_at Wilcoxon [1]: Yes
- Myoz2 NM_021503_at Wilcoxon [1]: Yes
- Ncbp1 NM_001033201_at Wilcoxon [1]: No
- Nolc1 NM_001039351_at Wilcoxon [1]: No
- Nolc1 NM_001039352_at Wilcoxon [1]: No
- Nolc1 NM_001039353_at Wilcoxon [1]: No
- Nrap NM_198059_at Wilcoxon [1]: Yes
- Nusap1 NM_133851_at Wilcoxon [1]: Yes
- Ogfrl1 NM_001081079_at Wilcoxon [1]: No
- Olr1 NM_138648_at Wilcoxon [1]: Yes
- Oxr1 NM_001130163_at Wilcoxon [1]: No
- Oxr1 NM_001130164_at Wilcoxon [1]: No
- Oxr1 NM_001130165_at Wilcoxon [1]: No
- Oxr1 NM_001130166_at Wilcoxon [1]: No
- Pgam2 NM_018870_at Wilcoxon [1]: Yes
- Pigyl NM_001082532_at Wilcoxon [1]: No
- Pparg NM_001127330_at Wilcoxon [1]: No
- Ppih NM_001110129_at Wilcoxon [1]: No
- Prg4 NM_021400_at Wilcoxon [1]: Yes
- Retnla NM_020509_at Wilcoxon [1]: Yes
- Rffl NM_001007465_at Wilcoxon [1]: No
- Rn18s NR_003278_at Wilcoxon [1]: Yes
- Rpl3l NM_025425_at Wilcoxon [1]: Yes
- Slc39a14 NM_001135151_at Wilcoxon [1]: No
- Sln NM_025540_at Wilcoxon [1]: Yes
- Smpx NM_025357_at Wilcoxon [1]: Yes
- Tnfrsf9 NM_001077508_at Wilcoxon [1]: No
- Tnfrsf9 NM_001077509_at Wilcoxon [1]: No
- Tnni1 NM_021467_at Wilcoxon [1]: Yes
- Trdn NM_029726_at Wilcoxon [1]: Yes
- Trf NM_133977_at Wilcoxon [1]: Yes
- Trp63 NM_001127259_at Wilcoxon [1]: No
- Trp63 NM_001127260_at Wilcoxon [1]: No
- Trp63 NM_001127262_at Wilcoxon [1]: No
- Trp63 NM_001127264_at Wilcoxon [1]: No
- Ttn NM_028004_at Wilcoxon [1]: Yes
- Wbp1 NM_001083922_at Wilcoxon [1]: No
- Wbp1 NM_001083923_at Wilcoxon [1]: No
- Wfdc2 NM_026323_at Wilcoxon [1]: Yes
- Zfp68 NM_001044747_at Wilcoxon [1]: No
- Zfp187 NM_001013786_at Wilcoxon [1]: No
- Zfp518b NM_001081144_at Wilcoxon [1]: No
- Zfp943 NM_001025373_at Wilcoxon [1]: No
- Wilcoxon (Egr1 NM_007913_at, DBP-4 hr vs. untreated): Yes
- Kendall (Egr1 NM_007913_at): No
- Wilcoxon (Ehf NM_007914_at, DBP-4 hr vs. untreated): Yes
- Kendall (Ehf NM_007914_at): No
- Wilcoxon (Ereg NM_007950_at, DBP-4 hr vs. untreated): Yes
- Kendall (Ereg NM_007950_at): No
- Wilcoxon (Fgfbp1 NM_008009_at, DBP-4 hr vs. untreated): No
- Kendall (Fgfbp1 NM_008009_at): No
- Wilcoxon (Gch1 NM_008102_at, DBP-4 hr vs. untreated): Yes
- Kendall (Gch1 NM_008102_at): No
- Wilcoxon (Gjb2 NM_008125_at, DBP-4 hr vs. untreated): Yes
- Kendall (Gjb2 NM_008125_at): No
- Wilcoxon (Gpr65 NM_008152_at, DBP-4 hr vs. untreated): Yes
- Kendall (Gpr65 NM_008152_at): No
- 1110032A04Rik NM_133675_at Kendall [2]: No
- 2510002D24Rik NM_001033164_at Kendall [2]: Yes
- 2510009E07Rik NM_001001881_at Kendall [2]: Yes
- 2610528A11Rik XR_105647_at Kendall [2]: No
- 1500015010Rik NM_024283_at Kendall [2]: No
- 3110079015Rik NM_028473_at Kendall [2]: No
- A2m NM_175628_at Kendall [2]: No
- AY026312 NM_133359_at Kendall [2]: No
- Actn2 NM_033268_at Kendall [2]: No
- Akr1c14 NM_134072_at Kendall [2]: No
- Aldh7a1 NM_001127338_at Kendall [2]: Yes
- Aox4 NM_023631_at Kendall [2]: No
- Asb5 NM_029569_at Kendall [2]: No
- Atp2a2 NM_001110140_at Kendall [2]: Yes
- Atp13a3 NM_001128094_at Kendall [2]: Yes
- Atp13a3 NM_001128096_at Kendall [2]: Yes
- Bcr NM_001081412_at Kendall [2]: Yes
- Camk2g NM_001039138_at Kendall [2]: Yes
- Camk2g NM_001039139_at Kendall [2]: Yes
- Ccl8 NM_021443_at Kendall [2]: No
- Ccl24 NM_019577_at Kendall [2]: No
- Cd209d NM_130904_at Kendall [2]: No
- Ckmt2 NM_198415_at Kendall [2]: No
- Cldn8 NM_018778_at Kendall [2]: No
- Clec4n NM_020001_at Kendall [2]: No
- Cmya5 NM_023821_at Kendall [2]: No
- Comp NM_016685_at Kendall [2]: No
- Corin NM_016869_at Kendall [2]: No
- Crispld1 NM_031402_at Kendall [2]: No
- Cxcl10 NM_021274_at Kendall [2]: No
- Cxcr6 NM_030712_at Kendall [2]: No
- Cyth1 NM_001112699_at Kendall [2]: Yes
- Cyth1 NM_001112700_at Kendall [2]: Yes
- Dbp NM_016974_at Kendall [2]: No
- Deptor NM_001037937_at Kendall [2]: Yes
- Dlgap4 NM_001042487_at Kendall [2]: Yes
- Dlgap4 NM_001042488_at Kendall [2]: Yes
- Ear5 NM_019398_at Kendall [2]: No
- Fam134b NM_001034851_at Kendall [2]: Yes
- Gcdh NM_001044744_at Kendall [2]: Yes
- Gm10228 XM_001474297_at Kendall [2]: No
- Gm10228 XM_003086004_at Kendall [2]: No
- Gm10229 XM_003086003_at Kendall [2]: No
- Gsdmc NM_031378_at Kendall [2]: No
- H19 NR_001592_at Kendall [2]: No
- Il1rl1 NM_001025602_at Kendall [2]: Yes
- Inpp5a NM_001127363_at Kendall [2]: Yes
- Inpp5d NM_001110192_at Kendall [2]: Yes
- Inpp5d NM_001110193_at Kendall [2]: Yes
- Klhdc5 NM_001081237_at Kendall [2]: Yes
- Krt33a NM_027983_at Kendall [2]: No
- Krt34 NM_027563_at Kendall [2]: No
- Krtap1-5 NM_027157_at Kendall [2]: No
- Krtap3-1 NM_023511_at Kendall [2]: No
- Krtap3-3 NM_025524_at Kendall [2]: No
- Krtap4-2 NM_026807_at Kendall [2]: No
- Krtap5-2 NM_027844_at Kendall [2]: No
- Krtap9-3 NM_029351_at Kendall [2]: No
- Krtap13-1 NM_183189_at Kendall [2]: No
- Krtap16-1 NM_130870_at Kendall [2]: No
- Krtap16-5 NM_130857_at Kendall [2]: No
- Krtap16-7 NM_028621_at Kendall [2]: No
- Krtap16-8 NM_130856_at Kendall [2]: No
- Krtap16-9 NM_130876_at Kendall [2]: No
- Krtap16-10 NM_183296_at Kendall [2]: No
- Krtap28-13 XM_896507_at Kendall [2]: No
- Krtap28-13 XM_919110_at Kendall [2]: No
- LOC100503254 XM_003085741_at Kendall [2]: No
- Lmod2 NM_053098_at Kendall [2]: No
- Lyz2 NM_017372_at Kendall [2]: No
- Mfhas1 NM_001081279_at Kendall [2]: Yes
- Mfsd4 NM_001114662_at Kendall [2]: Yes
- Mia1 NM_019394_at Kendall [2]: No
- Mrpl44 NM_001081210_at Kendall [2]: Yes
- Ms4a6d NM_026835_at Kendall [2]: No
- Mylpf NM_016754_at Kendall [2]: No
- Myoz2 NM_021503_at Kendall [2]: No
- Ncbp1 NM_001033201_at Kendall [2]: Yes
- Nolc1 NM_001039351_at Kendall [2]: Yes
- Nolc1 NM_001039352_at Kendall [2]: Yes
- Nolc1 NM_001039353_at Kendall [2]: Yes
- Nrap NM_198059_at Kendall [2]: No
- Nusap1 NM_133851_at Kendall [2]: No
- Ogfrl1 NM_001081079_at Kendall [2]: Yes
- Olr1 NM_138648_at Kendall [2]: No
- Oxr1 NM_001130163_at Kendall [2]: Yes
- Oxr1 NM_001130164_at Kendall [2]: Yes
- Oxr1 NM_001130165_at Kendall [2]: Yes
